Patent US5028601A, “Cephalosporin compounds and antibacterial agents” (Meiji Saika Kaisha, Ltd., priority 1987, dated 1991)
Like-named read-outs stand apart in the source and are kept apart here.

What was measured:
Assay type in all cases: cell-based
Parameters in all cases: unit not given here
[1] = system: Staphylococcus aureus 209P JC-1; experiment: Minimum growth inhibitory concentration, Staphylococcus aureus 209P JC-1
[2] = system: Serratia marcescens No. 1; experiment: Minimum growth inhibitory concentration, Serratia marcescens No. 1
[3] = system: Enterobacter cloacae GN-471; experiment: Minimum growth inhibitory concentration, Enterobacter cloacae GN-471
[4] = system: Pseudomonas aeruginosa IAM-1007; experiment: Minimum growth inhibitory concentration, Pseudomonas aeruginosa IAM-1007
[5] = system: Bacillus subtilis ATCC6633; experiment: Minimum growth inhibitory concentration, Bacillus subtilis ATCC6633
[6] = system: Pseudomonas aeruginosa E-2; experiment: Minimum growth inhibitory concentration, Pseudomonas aeruginosa E-2
[7] = system: Staphylococcus aureus Smith (1); experiment: Minimum growth inhibitory concentration, Staphylococcus aureus Smith (1)
[8] = system: Citrobacter freundii GN-346; experiment: Minimum growth inhibitory concentration, Citrobacter freundii GN-346
[9] = system: Pseudomonas aeruginosa M-0148; experiment: Minimum growth inhibitory concentration, Pseudomonas aeruginosa M-0148
Proteus vulgaris GN-76 = experiment: Minimum growth inhibitory concentration, Proteus vulgaris GN-76
[10] = system: Klebsiella pneumoniae GN-69; experiment: Minimum growth inhibitory concentration, Klebsiella pneumoniae GN-69
Escherichia coli No. 255 = experiment: Minimum growth inhibitory concentration, Escherichia coli No. 255
[11] = system: Pseudomonase cepacia M-0527; experiment: Minimum growth inhibitory concentration, Pseudomonase cepacia M-0527
Proteus rettgeri GN-624 = experiment: Minimum growth inhibitory concentration, Proteus rettgeri GN-624
Escherichia coli No. 29 = experiment: Minimum growth inhibitory concentration, Escherichia coli No. 29
[12] = Staphylococcus aureus 209P JC-1
[13] = Pseudomonas aeruginosa IAM-1007
[14] = Staphylococcus aureus Smith (1)

| SMILES | Minimum Growth Inhibitory Concentration [1, 12] | Minimum Growth Inhibitory Concentration ([2]; Serratia marcescens No. 1) | Minimum Growth Inhibitory Concentration ([3]; Enterobacter cloacae GN-471) | Minimum Growth Inhibitory Concentration [4, 13] | Minimum Growth Inhibitory Concentration ([5]; Bacillus subtilis ATCC6633) | Minimum Growth Inhibitory Concentration ([6]; Pseudomonas aeruginosa E-2) | Minimum Growth Inhibitory Concentration [7, 14] | Minimum Growth Inhibitory Concentration ([8]; Citrobacter freundii GN-346) | Minimum Growth Inhibitory Concentration ([9]; Pseudomonas aeruginosa M-0148) | Minimum Growth Inhibitory Concentration (Proteus vulgaris GN-76; Proteus vulgaris GN-76) | Minimum Growth Inhibitory Concentration ([10]; Klebsiella pneumoniae GN-69) | Minimum Growth Inhibitory Concentration (Escherichia coli No. 255) | Minimum Growth Inhibitory Concentration [11] | Minimum Growth Inhibitory Concentration (Proteus rettgeri GN-624; Proteus rettgeri GN-624) | Minimum Growth Inhibitory Concentration (Escherichia coli No. 29) | other results |
| --- | --- | --- | --- | --- | --- | --- | --- | --- | --- | --- | --- | --- | --- | --- | --- | --- |
| Nc1nc(/C(=N/OCc2cc(=O)c(O)c[nH]2)C(=O)N[C@@H]2C(=O)N3C(C(=O)[O-])=C(C[n+]4ccccc4)CS[C@H]23)cs1 [A, reference compound] | 3.13 | 0.20 | 3.13 | 3.13 | 1.56 | 3.13 | 3.13 | 25 | 25 | 0.20 | 0.20 | 1.56 | 0.39 | 12.5 | 0.20 |  |
| CC(C)(O/N=C(\C(=O)N[C@@H]1C(=O)N2C(C(=O)[O-])=C(C[n+]3ccccc3)CS[C@H]12)c1csc(N)n1)C(=O)O [B, Ceftazidime, reference compound] |  |  |  |  |  |  |  |  |  |  |  |  | 0.78 |  | 0.20 | Minimum Growth Inhibitory Concentration [1]: 3.13; Minimum Growth Inhibitory Concentration [2]: < 0.025; Minimum Growth Inhibitory Concentration [3]: 3.13; Minimum Growth Inhibitory Concentration [4]: 1.56; Minimum Growth Inhibitory Concentration [5]: 6.25; Minimum Growth Inhibitory Concentration [6]: 1.56; Minimum Growth Inhibitory Concentration [7]: 3.13; Minimum Growth Inhibitory Concentration [8]: 50; Minimum Growth Inhibitory Concentration [9]: 3.13; Minimum Growth Inhibitory Concentration (Proteus vulgaris GN-76): 0.05; Minimum Growth Inhibitory Concentration [10]: 0.10; Minimum Growth Inhibitory Concentration (Proteus rettgeri GN-624): 0.39 |
| C[n+]1ccc(SCC2=C(C(=O)[O-])N3C(=O)[C@@H](NC(=O)/C(=N\OCc4cc(=O)c(O)cn4O)c4csc(N)n4)[C@H]3SC2)cc1 [Example 1, (6R,7R)-7-[(Z)-2-(2-Aminothiazole-4-yl)-2-(1,5-dihydroxy-4-pyridone-2-yl)methoxyiminoacetamido]-3-(1-methylpyridinium-4-yl)thiomethyl-ceph-3em-4-carboxylate] | 3.13 | 0.05 | 1.56 | 0.10 | 12.5 | 0.05 | 3.13 | 12.5 | 0.20 | 0.05 | < 0.025 | 0.10 | < 0.025 | 0.10 | 0.05 |  |
| Nc1nc(/C(=N/OCc2cc(=O)c(O)cn2O)C(=O)N[C@@H]2C(=O)N3C(C(=O)[O-])=C(CSc4cc[n+](CCO)cc4)CS[C@H]23)cs1 [Example 3, (6R,7R)-7-[(Z)-2-(2 Aminothiazole-4-yl)-2-(1,5-dihydroxy-4-pyridone-2-yl)methoxyiminoacetamido]-3-[1-(2-hydroxyethyl)pyridinium-4-yl]thiomethyl-ceph-3-em-4-carboxylate] | 3.13 | 0.10 | 1.56 | 0.10 | 12.5 | 0.05 | 6.25 | 6.25 | 0.20 | 0.05 | 0.05 | 0.20 | < 0.025 | 0.10 | 0.05 |  |
| C[n+]1ccc(SCC2=C(C(=O)[O-])N3C(=O)[C@@H](NC(=O)/C(=N\OCc4cc(=O)c(O)cn4O)c4csc(N)n4)[C@H]3SC2)c2c1CCC2 [Example 4] | 3.13 | 0.10 | 0.78 | 0.10 | 12.5 | 0.10 | 6.25 | 1.56 | 0.10 | < 0.025 | 0.10 | 0.20 | < 0.025 | 0.20 | < 0.025 |  |
| Cn1c(SCC2=C(C(=O)O)N3C(=O)[C@@H](NC(=O)/C(=N\OCc4cc(=O)c(O)cn4O)c4csc(N)n4)[C@H]3SC2)nnc(O)c1=O [Example 9, (6R,7R)-7-[(Z)-2-(2-Aminothiazole-4-yl)-2-(1,5-dihydroxy-4-pyridone-2-yl)methoxyiminoacetamido]-3-(4,5-dihydro-4-methyl 5-oxo-6-hydroxy-1,2,4-triazine-3-yl)thiomethyl-ceph-3-em-4-carboxylic acid] | 6.25 | 0.05 | 3.13 | 0.39 | 12.5 | 0.05 | 12.5 | 3.13 | 0.39 | < 0.025 | < 0.025 | 0.20 | < 0.025 | 0.20 | < 0.025 |  |
| Nc1nc(/C(=N/OCc2cc(=O)c(O)cn2O)C(=O)N[C@@H]2C(=O)N3C(C(=O)[O-])=C(C[n+]4ccccc4)CS[C@H]23)cs1 [Example 14, (6R,7R)-7-[(Z)-2-(2-Aminothiazole-4-yl)-2-(1,5-dihydroxy-4-pyridone-2-yl)methoxyiminoacetamido]-3-pyridiniummethyl-ceph-3-em-4-carboxylate] | 6.25 | 0.10 | 3.13 | 0.39 | 12.5 | 0.10 | 6.25 | 6.25 | 0.78 | 0.20 | 0.10 | 0.78 | < 0.025 | 3.13 | 0.10 |  |
